Experimental data published in ChEMBL document CHEMBL3751692, “Synthesis and fluorescent study of 5-phenyl furocoumarin derivatives as vasodilatory agents” (Bioorg Med Chem Lett, 2016).

Tests used:
[1] = Vasodilator activity in Sprague-Dawley rat mesentric artery assessed as reduction in of K+-induced contraction relative to control; assay type: functional; settings: Mesenteric artery
[2] = Vasodilator activity in Sprague-Dawley rat mesentric artery assessed as reduction in of K+-induced contraction; assay type: functional, Mesenteric artery

For `CCOC(=O)c1ccccc1-c1c2ccoc2c(OCCN2CCCC2)c2oc(=O)ccc12`, the Emax [1] was 100% and the pEC50 [2] was 5.15.
`COC(=O)c1ccccc1-c1c2ccoc2c(OCCN2CCOCC2)c2oc(=O)ccc12` showed an Emax [1] of 100% and a pEC50 [2] of 5.59.
For `CCOC(=O)c1ccccc1-c1c2ccoc2c(OCCN2CCOCC2)c2oc(=O)ccc12`, the Emax [1] was 113% and the pEC50 [2] was 5.81.
Compound `COc1ccc(CCN(C)CCCC(C#N)(c2ccc(OC)c(OC)c2)C(C)C)cc1OC` (stereo not drawn) [VERAPAMIL] has an Emax [1] of 95.8% and a pEC50 [2] of 7.51.
`CCOC(=O)c1ccccc1-c1c2ccoc2c(OCCN2CCCCC2)c2oc(=O)ccc12` gave an Emax [1] of 113% and a pEC50 [2] of 5.38.
For `COC(=O)c1ccccc1-c1c2ccoc2c(OCCN(C)C)c2oc(=O)ccc12`, the Emax [1] was 102% and the pEC50 [2] was 5.27.
With `CC(C)=CCOc1c2occc2cc2ccc(=O)oc12` [PENTOSALEN] the Emax [1] was 85.6% and the pEC50 [2] was 4.95.
In the case of `COC(=O)c1ccccc1-c1c2ccoc2c(OCCN2CCCCC2)c2oc(=O)ccc12`, the Emax [1] is reported as 116% and the pEC50 [2] is reported as 5.35.
In the case of `COC(=O)c1ccccc1-c1c2ccoc2c(OCCN2CCCC2)c2oc(=O)ccc12`, the Emax [1] is reported as 102% and the pEC50 [2] is reported as 4.71.
